Among the data in US20040068113A1, “Substituted polycyclic aryl and heteroaryl pyridines useful for selective inhibition of the coagulation cascade” (priority 2003, published 2004) are IC50 and inhibition values, retold here.

Some results are limits rather than exact numbers.

What all share (assay type): biochemical
One test addresses Human thrombin (Homo sapiens, UniProt P00734). Description: Thrombin Assay. The conditions noted are these: read-out: Thrombin II IC50. Here is the method: (§1) Human thrombin (0.28 nm)and 0.06 mM H-D-Phenylalanyl-L-pipecolyl-L-arginine-p-nitroaniline dihydrochloride are added to a 96-well assay plate containing either inhibitor or buffer (50 mM Tris-HCl, pH 8.0, 100 mM NaCl, 0.1% BSA). The reaction, in a final volume of 100 ul is measured immediately at 405 nm to determine background absorbance. The plate is incubated at room temperature for 60 min, at which time the rate of hydrolysis of the substrate is measured by monitoring the reaction at 405 nm for the release of p-nitroaniline. Percent inhibition of thrombin activity is calculated from OD405nm value from the experimental and control sample.
(§2) Recombinant soluble TF, consisting of amino acids 1-219 of the mature protein sequence was expressed in E. coli and purified using a Mono Q Sepharose FPLC. Recombinant human VIIa was purchased from American Diagnostica, Greenwich Conn. and chromogenic substrate N-Methylsulfonyl-D-phe-gly-arg-p-nitroaniline was prepared by American Peptide Company, Inc., Sunnyvale, Calif. Factor Xa was obtained from Enzyme Research Laboratories, South Bend Ind., thrombin from Calbiochem, La Jolla, Calif., and trypsin and L-BAPNA from Sigma, St. Louis Mo. The chromogenic substrates S-2765 and S-2238 were purchased from Chromogenix, Sweden.

The target of test [1] is T1, recombinant soluble tissue factor and recombinant human factor VIIa (TF-VIIa) (Homo sapiens, UniProt P08709).
T1 construct: purchased American Diagnostica, Greenwich Conn; host or cells: soluble TF made in house in E. coli
T1 sequence (P08709 213-466 limits assumed): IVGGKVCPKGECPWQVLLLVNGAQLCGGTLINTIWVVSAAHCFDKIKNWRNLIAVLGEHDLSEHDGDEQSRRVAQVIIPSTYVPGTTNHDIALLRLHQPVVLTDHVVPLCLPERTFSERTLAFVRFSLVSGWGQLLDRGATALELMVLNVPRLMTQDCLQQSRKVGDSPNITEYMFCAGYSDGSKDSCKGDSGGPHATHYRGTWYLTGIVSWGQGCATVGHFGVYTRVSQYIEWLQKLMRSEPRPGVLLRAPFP
T1 sequence (P08709 61-212 limits assumed): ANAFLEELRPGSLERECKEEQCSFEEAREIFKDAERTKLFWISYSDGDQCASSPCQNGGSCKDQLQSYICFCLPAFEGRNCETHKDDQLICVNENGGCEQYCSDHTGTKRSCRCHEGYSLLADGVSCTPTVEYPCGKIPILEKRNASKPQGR
T1 sequence (P13726 33-251 partner limits assumed): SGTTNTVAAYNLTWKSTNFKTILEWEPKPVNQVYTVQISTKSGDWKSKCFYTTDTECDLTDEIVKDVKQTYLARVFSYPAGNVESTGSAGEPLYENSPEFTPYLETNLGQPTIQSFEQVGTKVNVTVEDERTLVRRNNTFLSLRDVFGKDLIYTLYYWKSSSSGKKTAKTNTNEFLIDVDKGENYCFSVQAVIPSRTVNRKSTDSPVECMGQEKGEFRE
Description: TF-VIIa Assay. On the procedure: as §1, with “In this assay 100 nM recombinant soluble tissue factor and 2 nM recombinant human factor VIIa” for “Human thrombin (0.28 nm)and 0.06 mM H-D-Phenylalanyl-L-pipecolyl-L-arginine-p-nitroaniline dihydrochloride”, “containing 0.4 mM of the substrate, N-Methylsulfonyl-D-phe-gly-arg-p-nitroaniline and” for “containing”, “(5 mM CaCl2, 50” for “(50”, “TF-VIIa” for “thrombin”, “OD405 nm” for “OD405nm”
as §2

For test [2], the target named is T2, Trypsin (type 1× from porcine pancreas) (Sus scrofa, UniProt P00761).
T2 construct: Trypsin (5 ug/ml; type 1× from porcine pancreas); purchased Sigma, St. Louis Mo; host or cells: porcine pancreas
T2 sequence (P00761 9-231): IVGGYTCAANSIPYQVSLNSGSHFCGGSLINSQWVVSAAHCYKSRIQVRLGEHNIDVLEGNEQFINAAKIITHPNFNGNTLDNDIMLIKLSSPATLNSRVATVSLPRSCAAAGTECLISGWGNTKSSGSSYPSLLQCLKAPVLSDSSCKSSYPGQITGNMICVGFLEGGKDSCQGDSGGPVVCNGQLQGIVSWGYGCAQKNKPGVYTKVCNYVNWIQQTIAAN
Description: Trypsin Assay. To be noted: read-out: Trpysin II IC50. On the procedure: Trypsin (5 ug/ml; type 1× from porcine pancreas) and 0.375 mM N-α-Benzoyl-L-arginine-p-nitroanilide (L-BAPNA) are added to a 96-well assay plate containing either inhibitor or buffer (50 mM Tris-HCl, pH 8.0, 100 mM NaCl, 0.1% BSA). The reactions, in a final volume of 100 ul are measured immediately at 405 nm to determine background absorbance. The plate is incubated at room temperature for 60 min, at which time the rate of hydrolysis of the substrate is measured by monitoring the reaction at 405 nm for the release of p-nitroaniline. Percent inhibition of trypsin activity is calculated from OD405 nm value from the experimental and control sample.
as §2

The next test addresses T3, Human factor Xa (Homo sapiens, UniProt P00742).
T3 construct: purchased Enzyme Research Laboratories, South Bend Ind
The experiment in a line: Xa Assay. Here is the method: as §1, with “factor Xa (0.3 nM) and 0.15” for “thrombin (0.28 nm)and 0.06”, “N-a-Benzyloxycarbonyl-D-arginyl-L-glycyl-L-arginine-p-nitroaniline-dihydrochloride (S-2765)” for “H-D-Phenylalanyl-L-pipecolyl-L-arginine-p-nitroaniline dihydrochloride”, “Xa” for “thrombin”, “OD405 nm” for “OD405nm”
as §2

The mark [3] stands for this setting: read-out: Factor Xa percent inhibition.

T3 sequence (P00742 235-488 limits assumed): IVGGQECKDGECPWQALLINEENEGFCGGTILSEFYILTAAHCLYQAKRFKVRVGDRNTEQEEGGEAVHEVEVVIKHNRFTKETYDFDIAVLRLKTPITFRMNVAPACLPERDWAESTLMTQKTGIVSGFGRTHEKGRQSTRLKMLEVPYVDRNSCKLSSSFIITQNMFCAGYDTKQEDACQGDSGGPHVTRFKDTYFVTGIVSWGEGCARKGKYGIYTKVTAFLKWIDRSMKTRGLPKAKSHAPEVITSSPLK
T3 sequence (P00742 41-179 limits assumed): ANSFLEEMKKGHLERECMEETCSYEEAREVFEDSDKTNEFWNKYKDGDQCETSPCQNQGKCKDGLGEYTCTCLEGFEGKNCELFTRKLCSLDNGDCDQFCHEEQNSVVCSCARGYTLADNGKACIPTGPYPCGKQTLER

The IC50 is the point on the concentration scale where inhibition reaches its midpoint. As a reminder, the inhibition is the percentage by which the read-out fell short of the control. As to `N=C(N)c1ccc(CNC(=O)Cc2nc(NC3CCC3)ccc2-c2cccc(N)c2)cc1` [Example 1], the IC50 at Human thrombin came to 710 nM; in test [1], 2460 nM; in test [2] it was 60 nM. The inhibition at 30 µM at Human factor Xa (setting [3]) was 27%.
As to `N=C(N)c1ccc(CNC(=O)Cc2c(-c3cccc(N)c3)ccc(NC3CCC3)[n+]2[O-])cc1` [Example 2], the figures for the IC50 (at Human thrombin; in test [1]; in test [2]) were 7130 nM, 70 nM and 20 nM, respectively. For the same molecule, the inhibition at 30 µM at Human factor Xa (setting [3]) worked out at 26%.
For `CC(C)Nc1ccc(-c2cc(N)cc(C(=O)O)c2)c(CC(=O)NCc2ccc(C(=N)N)cc2)[n+]1[O-]` [Example 3], the IC50 is > 100000 nM on Human thrombin, 720 nM in test [1], 158 nM in test [2] and > 100000 nM on Human factor Xa.
Turning to `CC(C)Nc1ccc(-c2ccccc2OCc2ccccc2)c(CC(=O)NCc2ccc(C(=N)N)cc2)[n+]1[O-]` [Example 5], the IC50 at Human thrombin is 370 nM; in test [1] it was 2380 nM; in test [2] it was 100 nM; against Human factor Xa, > 100000 nM.
On to `CC(C)Nc1ccc(-c2ccccc2Oc2ccccc2)c(CC(=O)NCc2ccc(C(=N)N)cc2)[n+]1[O-]` [Example 6], for which the IC50 is 86500 nM on Human thrombin, 6940 nM in test [1], 170 nM in test [2] and > 100000 nM on Human factor Xa.
Take `CC(C)Nc1ccc(-c2cc(N)cc(N)c2)c(CC(=O)NCc2ccc(C(=N)N)cc2)[n+]1[O-]` [Example 7]: the values for the IC50 (at Human thrombin; in test [1]; in test [2]) were 60700 nM, 84 nM and 22 nM, respectively.
Turning to `CC(C)Nc1ccc(-c2cccc(CO)c2)c(CC(=O)NCc2ccc(C(=N)N)cc2)[n+]1[O-]` [Example 9], the IC50 at Human thrombin is 6600 nM; in test [1], 1720 nM; in test [2] it was 210 nM; on Human factor Xa, > 100000 nM.
For the molecule `CC(=O)c1cccc(-c2ccc(NC(C)C)[n+]([O-])c2CC(=O)NCc2ccc(C(=N)N)cc2)c1` [Example 10], the half-maximal inhibitory concentration (IC50) at Human thrombin is 3000 nM; in test [1], 1700 nM; in test [2], 35 nM. For the same molecule, the inhibition at 100 µM on Human factor Xa (@ 100 uM, read-out: Factor Xa percent inhibition) was found to be 40%.
For the molecule `CC(C)Nc1ccc(-c2csc3ccccc23)c(CC(=O)NCc2ccc(C(=N)N)cc2)[n+]1[O-]` [Example 11], the IC50 turned out to be 39500 nM at Human thrombin, 5600 nM in test [1], 79 nM in test [2] and 21000 nM on Human factor Xa.
Turning to `CC(C)Nc1ccc(/C=C/c2ccccc2)c(CC(=O)NCc2ccc(C(=N)N)cc2)[n+]1[O-]` [Example 12], the results for the IC50 (at Human thrombin; in test [2]) were 29000 nM and 990 nM, respectively. For the same molecule, in test [1] (at 100 uM, read-out: TF-VIIA percent inhibition), the inhibition at 100 µM turned out to be 23%.
On to `CC(C)Nc1ccc(-c2ccccc2CN2C(=O)c3ccccc3C2=O)c(CC(=O)NCc2ccc(C(=N)N)cc2)[n+]1[O-]` [Example 13], for which the IC50 was 12000 nM at Human thrombin, 1420 nM in test [1], 121 nM in test [2] and > 100000 nM at Human factor Xa.
For the molecule `CC(C)Nc1ccc(-c2cccc(N)c2)c(CC(=O)NCc2ccc(C(=N)N)cc2)[n+]1[O-]` [Example 14], the IC50 is 9900 nM on Human thrombin, 155 nM in test [1], < 140 nM in test [2] and > 100000 nM against Human factor Xa.
